Reference: patent US11964946B1, “4,5-bis(4-methoxyphenyl)-1-hexyl-2-(4-nitrophenyl)-1H-imidazole as an antimicrobial compound” (KING FAISAL UNIVERSITY, priority 2023, dated 2024)

Assays:
Test in all cases: Antimicrobial screening, agar dilution method
Type in all cases: cell-based
Settings in all cases: after 10, 20, 40 and 60 minutes at all dilutions 1:100, 1:200, 1:400, 1:800
Candida albicans = tested on: Candida albicans
Procedure: (§1) The antimicrobial properties of the 4,5-bis(4-methoxyphenyl)-1-hexyl-2-(4-nitrophenyl)-1H-imidazole was studied by the method of agar dilution. Test solutions of each compound was prepared in concentration of 1% using dimethylformamide as a solvent then they were diluted in physiological solution to obtain the final experimental dilutions 1:100, 1:200, 1:400, 1:800. The effect of these substances were compared with furacillin in a controlled study. The testing microbes used were gram positive bacteria Staphylococcus aureus, gram negative bacteria Pseudomonas aeruginosa and Escherichia coli and Candida albicans fungi were taken. The experiments used for this survey were meat-pentonlu agar (EPA) for cultivation of bacteria and Saburo environment for fungi. Each experiment used 1 ml of test solution on each plate 500 min. Add 2 drops of emulsified with microbes feel. All experimental samples were taken from the agar after 10, 20, 40, 60 minutes in the environment on the basis of Patrk planted. Bacteria were cultivated at a temperature of 37° C. for 1 day and the mushroom was kept in a thermostat for […] at a temperature of 28° C. Then results were checked.

Escherichia coli = tested on: Escherichia coli
Procedure: as §1

Pseudomonas aeruginosa = tested on: Pseudomonas aeruginosa
Procedure: as §1

Staphylococcus aureus = tested on: Staphylococcus aureus
Procedure: as §1

Measured: inhibition activity (in words)

CCCCCCn1c(-c2ccc(OC)c(OC)c2)nc(-c2ccc(Br)cc2)c1-c1ccc(Br)cc1 [4,5-bis(4-bromophenyl)-1-hexyl-2-(3,4-dimethoxyphenyl)-1H-imidazole]
highest inhibition activity: all assays above
